The source of these data is patent US8314123B2, “5, 6, or 7-substituted -3-(hetero) arylisoquinolinamine derivatives and therapeutic use thereof” (Rexahn Pharmaceuticals, Inc., priority 2006, dated 2012).

Like-named read-outs stand apart in the source and are kept apart here.

One series relates to SK-MEL-28 (melanoma). Description: In vitro cell proliferation assay (SRB), SK-MEL-28. It counts as cell-based. The note with it: Homo sapiens, SRB method, 96 hours, read-out: Inhibition of cell growth (IC50, μM) SK-MEL-28. The essentials: (§1)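 SNB-19, SK-MEL-28 and HCT116 were grown in RPMI1640 or DMEM with 10% FBS, PANC-1 in DMEM with 10% FBS. Triplicate treatments ran 96 h before SRB staining and absorbance reading at 530 nm; IC50 derived by non-linear regression.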
For orientation: Sulforhodamine B stains cellular protein and so reports cell mass.

Another series has as its system PANC-1 (pancreas). Description: In vitro cell proliferation assay (SRB), PANC-1. It counts as cell-based. To be noted: Homo sapiens, SRB method, 96 hours, read-out: Inhibition of cell growth (IC50, μM) PANC-1. In short, it runs like this:
as §1

The subject of series [1] is paclitaxel-resistant HCT-15 colorectal cancer cells. Description: In vitro antitumor effects against paclitaxel-resistant HCT-15 cells. It counts as cell-based, Human. As to the method:
(§2) Cancer cell lines to determine the effect of 5, 6, or 7-substituted-3-(hetero)arylisoquinolinamine compounds were obtained from the following sources: Human MDA-MB-231 (breast), PC3 (prostate), HCT-15 (colon), HCT116 (colon), OVCAR-3 (ovary), Caki-1 (kidney), PANC-1 (pancreas), SNB-19 (glioblastoma) and SK-MEL-28 (melanoma) from the American Type Culture Collection (ATCC) (Manassas, Va.). PC3, OVCAR-3, SK-MEL-28 and SNB-19 were grown in RPMI1640 medium (Invitrogen, Carlsbad, Calif.) supplemented with 10% fetal bovine serum (“FBS”), 1 mM sodium pyruvate, 10 mM HEPES and 100 U/ml penicillin and 100 μg/ml streptomycin (“P/S”). MDA-MB-231, Caki-1, HCT-15 (colon) and PANC-1 cells were maintained in Dulbecco's modified Eagle's medium (“DMEM”, Invitrogen) supplemented with 10% FBS, P/S and 10 mM HEPES. HCT116 cells were maintained in DMEM supplemented with 10% FBS, P/S and 10 mM HEPES for in vitro cell proliferation assay and in RPMI1640 medium supplemented with 10% FBS, 1 mM sodium pyruvate, 10 mM HEPES and P/S for in vitro cell cycle analysis. All cells were incubated at 37° C. under humidified 5% CO2.
(§3) The growth inhibition assay of representative 5, 6, or 7-substituted-3-(hetero)arylisoquinolinamine derivatives against human tumor cell lines was performed using the Sulforhodamine B (“SRB”) method (Skehan et al., J. National Cancer Institute, 82: 1107-1112 (1990)). Briefly, exponentially growing tumor cells were seeded into a 96-well plate at a density of 2-3×10^3 cells/well and treated with 5, 6, or 7-substituted-3-(hetero)arylisoquinolinamine compounds the next day. Triplicate wells were used for each treatment. The cells were incubated with the various compounds for 96 hours at 37° C. in a humidified 5% CO2 atmosphere. After 96-hour incubation, cells were fixed with 10% trichloroacetic acid (“TCA”), incubated for 1 hour at 4° C., and washed 3 times with tap water. Subsequently, cells were stained with 0.4% sulforhodamine B in 1% acetic acid for 30 minutes, washed 4 times with 1% acetic acid, and air-dried again. After 5 minutes agitation in 10 mM Tris solution, the absorbance of each well was measured at 530 nm using Benchmark Plus Microplate reader (Bio-Rad Laboratories, Hercules, Calif.).
(§4) To translate the OD530 values into the number of live cells in each well, the OD530 values were compared to those on standard OD530-versus-cell number curves generated for each cell line. The percent survival was calculated using the formula: % Survival=live cell number [test]/live cell number [control]×100
(§5) The IC50 values were calculated by non-linear regression analysis.
Compound 13 and 14 were tested in colon cancer cells and their antitumor activities were compared with paclitaxel (Taxol®).

For the next series, the system named is OVCAR-3 (ovary). Description: In vitro cell proliferation assay (SRB), OVCAR3. Format: cell-based. To be noted: Homo sapiens, SRB method, 96 hours, read-out: Inhibition of cell growth (IC50, μM) OVCAR3. In short, it runs like this:
(§6)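 Growth inhibition measured by the sulforhodamine B method following 96-hour compound treatment. IC50 values come from non-linear regression of survival relative to DMSO.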

Series [2] has as its system HCT15 human colon carcinoma xenografts. Description: Ex vivo xenograft study of nude mice. To be noted: 10 mg/kg/day intraperitoneal, three times per week. It counts as in vivo. As to the method: In order to observe the inhibition of growth of tumor in an animal model, an ex vivo xenograft study of nude mice was conducted utilizing Compound 13. Paclitaxel-resistant HCT15 cell suspension (1×10^6 cells in 0.2 ml of RPMI) was injected subcutaneously into the right flank of six-week-old female athymic mice (BALB/c nu/nu) on day 0. A sufficient number of mice were injected with HCT15 cell suspension so that tumors in a volume range as narrow as possible were selected for the trial on the day of treatment initiation. Animals with tumors in the proper size range were assigned to various treatment groups. Palcitaxel was used as a positive control. Compound 13 and paclitaxel were dissolved in 5 Cremophor and 5% ethanol in PBS and solvent alone served as vehicle control. All study medications (vehicle control, paclitaxel: 10 mg/kg/day, Compound 13: 10 mg/kg/day) were given by intraperitoneal injections three times per week starting from day 10 and ending on day 29 after inoculation of HCT15 cells. To quantify tumor growth, three perpendicular diameters of the tumors were measured with calipers every 3-5 days, and the body weight of the mice was monitored for toxicity. The tumor volume was calculated using the formula: tumor volume (mm^3)=(width)×(length)×(height)×π/6.

The test system of the next series is human cancer cell lines. Description: Growth inhibition against the panel of human tumor cell lines (SRB), overall statements. Format: cell-based. To be noted: Table 3 cell lines. As for the experimental part: as §2
The growth inhibition of the 5, 6, or 7-substituted-3-(hetero)arylisoquinolinamine derivatives against a variety of human tumor cells was evaluated to study the relative importance of particular substituent groups on the compounds. The 5, 6, or 7-substituted-3-(hetero)arylisoquinolinamine derivatives, prepared as described above, were tested with DMSO as a control.
as §3, §4, §5
Using QSAR and medicinal chemistry techniques, a large number of compounds, including the compounds shown in Table 1-2 above, were synthesized. The synthesized compounds were screened against at least four cancer cell lines, PANC-1, MDA-MB-231, HCT116 and Caki-1, at approximately 1 μM concentration. Compounds showing activity in at least one of these cell lines were selected for further screening. From these compounds, thirty compounds were selected for further evaluation as broad-spectrum anti-proliferative agents as shown in the following Table 3.

In the next series the test system is PC3 (prostate). Description: In vitro cell proliferation assay (SRB), PC3. Format: cell-based. The note with it: Homo sapiens; SRB method, 96 hours; read-out: Inhibition of cell growth (IC50, μM) PC3. The essentials: as §6
Another series has as its system MDA-MB-231 (breast). Description: In vitro cell proliferation assay (SRB), MDA-MB-231. It counts as cell-based. The note with it: Homo sapiens, SRB method, 96 hours, read-out: Inhibition of cell growth (IC50, μM) MDA-MB-231. In short, it runs like this:
as §6

Another series concerns SNB-19 (glioblastoma). Description: In vitro cell proliferation assay (SRB), SNB19. Format: cell-based. The note with it: Homo sapiens, SRB method, 96 hours, read-out: Inhibition of cell growth (IC50, μM) SNB19. In short, it runs like this: as §1
A further series deals with HCT116 (colon). Description: In vitro cell proliferation assay (SRB), HCT116. Format: cell-based. The note with it: Homo sapiens, HCT-116. The essentials:
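Seed exponentially growing cells (2-3×10^3/well); add compounds next day; incubate 96 hours at 37° C; fix with 10% TCA; stain with SRB; read at 530 nm. IC50 is fitted by non-linear regression of percent survival versus DMSO control.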

The test system of the next series is Caki-1 (kidney). Description: In vitro cell proliferation assay (SRB), Caki-1. Format: cell-based. The note with it: Homo sapiens, SRB method, 96 hours, read-out: Inhibition of cell growth (IC50, μM) Caki-1. The essentials:
as §6

Setting [3] is: SRB method, 96 hours, Table 3, read-out: Inhibition of cell growth (IC50, μM) HCT116.

One may read the IC50 as the midpoint of a concentration-inhibition curve. For the compound `COc1cccc(-c2cc3ccc(N(C)C)cc3c(N)n2)c1.Cl` [Compound 13, 3-(3-methoxyphenyl)-N^7,N^7-dimethylisoquinoline-1,7-diamine hydrochloride], the IC50 in the series on SK-MEL-28 (melanoma) worked out at 0.032 µM; in the series on PANC-1 (pancreas) it was 0.019 µM; in series [1] (Homo sapiens, paclitaxel-resistant HCT-15, Table 5, read-out: Inhibition of cell growth, IC50 (μM) HCT-15), 0.015 µM; with OVCAR-3 (ovary), 0.014 µM; in the series with PC3 (prostate), 0.019 µM; with MDA-MB-231 (breast), 0.021 µM. Also, the IC50 with SNB-19 (glioblastoma) was determined as 0.032 µM; in the series on HCT116 (colon) (setting [3]), 0.017 µM; in the series with HCT116 (colon) (Table 5, read-out: Inhibition of cell growth, IC50 (μM) HCT116), 0.017 µM; with Caki-1 (kidney), 0.022 µM. Also, in [1] (paclitaxel-resistant HCT-15 colorectal cancer cells), the “antitumor activity compared with paclitaxel” value was “higher antitumor activities than that of paclitaxel”. In addition, the “% Inhibition of HCT-15 human colorectal cancer in mice at 29 days” value in [2] (day 10 to day 29, nude mice) is 69.2%. Besides, the Tolerability of treatment entry in series [2] (nude mice) is “well tolerated without deaths”. For the same compound, the body weight fluctuations result in series [2] (nude mice) is reported as “no more than 1 g”. Also, the “activity in growth inhibition of human cancer cell compared to Compound 23” value in the series with human cancer cell lines is listed as “equal or better activity”. Further, in the series on human cancer cell lines, the “times more active than compound 23 in tested cell lines” value was “five to thirteen times more active”.
A word on the melting point: it is the temperature, or range, at which the solid turns liquid. For the compound `Cc1ccc2c(N)nc(-c3ccccc3C)cc2c1.Cl` [Compound 23, 6-Methyl-3-o-tolylisoquinolin-1-amine hydrochloride salt], the melting point lay in the range of 269.1 to 270.2 °C. Besides, the IC50 in the series with SK-MEL-28 (melanoma) stood at 0.35 µM. The IC50 in the series on PANC-1 (pancreas) is 0.24 µM. In addition, in the series with OVCAR-3 (ovary), the IC50 is 0.15 µM. In addition, in the series on PC3 (prostate), the IC50 is 0.24 µM. The IC50 with MDA-MB-231 (breast) stood at 0.15 µM. The IC50 in the series on SNB-19 (glioblastoma) amounted to 0.26 µM. In addition, the IC50 with HCT116 (colon) (setting [3]) was determined as 0.19 µM. In addition, the IC50 in the series with Caki-1 (kidney) stood at 0.12 µM.
